According to patent US12152038B2, “Vasopressin receptor antagonists and products and methods related thereto” (Neumora Therapeutics, Inc., priority 2017, dated 2024):

Target: T1, human Arginine Vasopressin Receptor 1b (AVPR1b) (Homo sapiens, UniProt P47901)
T1 construct: expressed in transfected cells; host or cells: CHO (CHO-AVPR1b, kept under G418 selection)
T1 sequence (P47901 1-424): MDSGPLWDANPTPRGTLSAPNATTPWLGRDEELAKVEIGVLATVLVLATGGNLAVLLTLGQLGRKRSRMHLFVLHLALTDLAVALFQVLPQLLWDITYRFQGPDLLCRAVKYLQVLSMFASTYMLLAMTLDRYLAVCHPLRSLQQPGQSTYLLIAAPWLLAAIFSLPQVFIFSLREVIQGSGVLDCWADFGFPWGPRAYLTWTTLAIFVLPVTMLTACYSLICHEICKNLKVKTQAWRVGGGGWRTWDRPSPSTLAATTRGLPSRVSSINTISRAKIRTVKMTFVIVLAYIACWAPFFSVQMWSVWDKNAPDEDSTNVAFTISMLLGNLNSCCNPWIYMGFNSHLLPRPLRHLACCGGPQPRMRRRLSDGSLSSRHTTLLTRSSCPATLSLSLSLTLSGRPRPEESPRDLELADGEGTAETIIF
Assay: Vasopressin V1b receptor antagonist assay (FLIPR calcium, CHO-AVPR1b cells)
Assay type: cell-based
Protocol: The purpose of the assay was to determine the inhibitory effect of synthesized compounds on the Vasopressin V1b receptor. The assay was performed in Chinese Hamster Ovary (CHO) cells expressing the human Arginine Vasopressin Receptor 1b (AVPR1b). Arginine Vasopressin (AVP) evokes an increase in intracellular calcium in CHO-AVPR1b cells which is measured in a fluorescence assay on the FLIPR^TETRA using calcium sensitive dyes. Test compounds were assessed for their ability to affect the magnitude of the response to AVP, with antagonists showing a concentration-dependent reduction in the AVP-mediated fluorescence.
CHO-AVPR1b cells were maintained in routine culture in T175 Flasks at 37° C., 5% CO2. The growth medium consisted of Ham's F12 media supplemented with 10% v/v fetal bovine serum, 1× non-essential amino acids, and 0.4 mg/ml Geneticin G418.
Cells were harvested from T175 flasks when they were 80-90% confluent by first washing the cell monolayer with PBS and then dissociated using trypsin 0.05%/EDTA (3 mL for a T175 Flask). The flasks were incubated at room temperature until the cells detached. To the cell suspension, 10 ml of growth media was added and the cell density determined using the Vi-Cell automated cell counter. The cells were spun at 1000 rpm for 3 minutes, then the supernatant was carefully removed and discarded. The cell pellet was re-suspended at 6.0e^5 cells/ml in growth media. 25 μL of cells in growth media was dispensed into each well (15,000 cells per well) of a poly-D-lysine coated black, clear bottomed, 384-well plate. The plates were incubated at 37° C., 5% CO2 overnight.
At the start of each assay day, the potency of AVP was assessed and an EC80 concentration determined for subsequent compound profiling. Assays were performed using a two-step addition protocol on the FLIPR^TETRA; first addition of 5 μl of control or test compound at 10× final in assay buffer with 15 min incubation at 37° C., 5% CO2 followed by 10 μl of AVP at 6× final concentration in assay buffer. Changes in fluorescence were monitored for 3 min after both additions on the FLIPR^TETRA using 470-495 nm excitation and 515-575 nm emission wavelengths. The assay buffer consisted of HBSS (+Ca/+Mg) supplemented with 20 mM HEPES, and for the preparation of the AVP agonist only, 0.1% w/v bovine serum albumin. The assay was initiated by the removal of growth media from the cells and replacement with 45 μl of Calcium-6 dye (Molecular Devices) prepared at 1× in assay buffer. Cells were loaded with dye for 60-90 min at 37° C., 5% CO2 before initiation of the FLIPR^TETRA protocol. […] For compound profiling, test compounds were first serially diluted in DMSO (10-point curve, 1:3 dilutions) then diluted 33.3-fold in assay buffer prior to addition to the dye loaded cells on the FLIPR^TETRA. At the end of the incubation period 10 μl of AVP in assay buffer containing 0.1% BSA was added at the previously determined EC80 concentration.
In-plate controls for the assay included a Nelivaptan concentration-response curve as the reference V1b antagonist and an AVP concentration-response curve to confirm the reproducibility of the EC80 used for the compound challenge.

| IC50 [µM] | SMILES |
| --- | --- |
| ≥ 1 | CC1COc2cc(F)c(F)cc2N1C(=O)N1CC2(C1)CN(c1cccnn1)C2 (single isomer, unassigned) [19-3-B] |
| ≥ 1 | CC1COc2cc(F)ccc2N1C(=O)N1CC2(C1)CN(c1ccc(F)cn1)C2 (stereo not drawn) [12-1, (7-fluoro-3-methyl-2,3-dihydro-4H-benzo[b][1,4]oxazin-4-yl)(6-(5-fluoropyridin-2-yl)-2,6-diazaspiro[3.3]heptan-2-yl)methanone] |
| ≥ 1 | CC1COc2cc(Cl)ccc2N1C(=O)N1CC2(C1)CN(c1cccnn1)C2 (stereo not drawn) [9-1, (7-chloro-3-methyl-2,3-dihydro-4H-benzo[b][1,4]oxazin-4-yl)(6-(pyridazin-3-yl)-2,6-diazaspiro[3.3]heptan-2-yl)methanone] |
| ≥ 1 | COc1ccnc(N2CC3(CN(C(=O)N4c5ccc(Cl)cc5OCC4C)C3)C2)c1 (single isomer, unassigned) [20-8-B] |
| ≥ 1 | CC1COc2cc(F)c(F)cc2N1C(=O)N1CC2(C1)CN(c1ncccn1)C2 (stereo not drawn) [19-1, (6,7-difluoro-3-methyl-2,3-dihydro-4H-benzo[b][1,4]oxazin-4-yl)(6-(pyrimidin-2-yl)-2,6-diazaspiro[3.3]heptan-2-yl)methanone] |
| ≥ 1 | Cc1nc(N2CC3(CN(C(=O)N4CCOc5cc(Cl)ccc54)C3)C2)ncc1F [6-1, (7-chloro-2,3-dihydro-4H-benzo[b][1,4]oxazin-4-yl)(6-(5-fluoro-4-methylpyrimidin-2-yl)-2,6-diazaspiro[3.3]heptan-2-yl)methanone] |
| ≥ 1 | CC1COc2cc(Cl)ccc2N1C(=O)N1CC2(C1)CN(c1cccnc1)C2 (single isomer, unassigned) [20-1-B] |
| ≥ 1 | CC1COc2cc(F)ccc2N1C(=O)N1CC2(C1)CN(c1cc(C#N)ccn1)C2 (single isomer, unassigned) [20-3-B] |
| ≥ 1 | Cc1cnc(N2CC3(CN(C(=O)N4c5ccc(Cl)cc5OCC4C)C3)C2)nc1 (stereo not drawn) [20-13] |
| ≥ 1 | O=C(N1CC2(C1)CN(c1ccccn1)C2)N1CCOc2cc(Cl)ccc21 [8-2] |
| ≥ 1 | Cc1ccnc(N2CC3(CN(C(=O)N4CCOc5cc(Cl)ccc54)C3)C2)c1 [1-14] |
| ≥ 1 | O=C(N1CC2(C1)CN(c1ccc(F)cn1)C2)N1CCOc2cc(Cl)ccc21 [9-7] |
| ≥ 1 | O=C(N1CC2(C1)CN(c1ncccn1)C2)N1CCOc2cc(Cl)ccc21 [1-4] |
| ≥ 1 | Cc1ccnc(N2CC3(CN(C(=O)N4c5ccc(Cl)cc5OCC4C)C3)C2)c1 (stereo not drawn) [20-11] |
| ≥ 1 | Cc1cccnc1N1CC2(CN(C(=O)N3CCOc4cc(Cl)ccc43)C2)C1 [1-5] |
| ≥ 1 | O=C(N1CC2(C1)CN(c1cnccn1)C2)N1CCC(O)c2cc(Cl)ccc21 (single isomer, unassigned) [13-3-A] |
| ≥ 1 | COc1ccnc(N2CC3(CN(C(=O)N4c5ccc(Cl)cc5OCC4C)C3)C2)n1 (single isomer, unassigned) [20-9-B] |

The remaining lines, values behind:

| SMILES | IC50 [µM] |
| --- | --- |
| Cc1nccnc1N1CC2(CN(C(=O)N3c4ccc(Cl)cc4OCC3C)C2)C1 (stereo not drawn) [20-10] | ≥ 1 |
| CC1COc2cc(F)c(F)cc2N1C(=O)N1CC2(C1)CN(c1ccc(F)cn1)C2 (stereo not drawn) [19-5] | ≥ 1 |
| CC1CN(C(=O)N2CC3(C2)CN(c2ccc(F)cn2)C3)c2ccc(F)cc2O1 (single isomer, unassigned) [9-4-B] | ≥ 1 |
| CC1COc2cc(Cl)ccc2N1C(=O)N1CC2(C1)CN(c1cccnn1)C2 (single isomer, unassigned) [9-1-A] | ≥ 1 |
| O=C(N1CC2(C1)CN(c1ccc(F)cn1)C2)N1CCOCc2cc(Cl)ccc21 [8-4] | ≥ 1 |
| Cc1nc(N2CC3(CN(C(=O)N4c5ccc(Cl)cc5OCC4C)C3)C2)ncc1F (stereo not drawn) [20-7] | ≥ 1 |
| CC1COc2cc(F)ccc2N1C(=O)N1CC2(C1)CN(c1ncc(F)cn1)C2 (single isomer, unassigned) [18-4-B] | ≥ 1 |
| O=C(N1CC2(C1)CN(c1cnccn1)C2)N1CCOCc2cc(Cl)ccc21 [8-13] | ≥ 1 |
| O=C(N1CC2(C1)CN(c1ncccc1F)C2)N1CCc2cc(Cl)ccc21 [1-76] | ≥ 1 |
| COc1ccnc(N2CC3(CN(C(=O)N4CCOc5cc(Cl)ccc54)C3)C2)c1 [1-15] | ≥ 1 |
| CC1COc2cc(Cl)ccc2N1C(=O)N1CC2(C1)CN(c1cccnc1)C2 (stereo not drawn) [20-1, (7-chloro-3-methyl-2,3-dihydro-4H-benzo[b][1,4]oxazin-4-yl)(6-(pyridin-3-yl)-2,6-diazaspiro[3.3]heptan-2-yl)methanone] | ≥ 1 |
| O=C(N1CC2(C1)CN(c1ccc(F)cn1)C2)N1CCC(F)(F)c2cc(Cl)ccc21 [17-1, (6-chloro-4,4-difluoro-3,4-dihydroquinolin-1(2H)-yl)(6-(5-fluoropyridin-2-yl)-2,6-diazaspiro[3.3]heptan-2-yl)methanone] | ≥ 1 |
| CC1COc2cc(Cl)c(F)cc2N1C(=O)N1CC2(C1)CN(c1cccnn1)C2 (single isomer, unassigned) [19-4-A] | ≥ 1 |
| Cc1cncc(N2CC3(CN(C(=O)N4c5ccc(F)cc5OCC4C)C3)C2)n1 (stereo not drawn) [20-2] | ≥ 1 |
| O=C(N1CC2(C1)CN(c1cccnn1)C2)N1CCOc2cc(Cl)c(F)cc21 [1-81] | ≥ 1 |
| O=C(N1CC2(C1)CN(c1ccc(F)cn1)C2)N1CCOc2cc(F)c(F)cc21 [9-6] | ≥ 1 |

| SMILES | IC50 [µM] |
| --- | --- |
| CCC1COc2cc(Cl)ccc2N1C(=O)N1CC2(C1)CN(c1ccccn1)C2 (stereo not drawn) [11-1, (7-chloro-3-ethyl-2,3-dihydro-4H-benzo[b][1,4]oxazin-4-yl)(6-(pyridin-2-yl)-2,6-diazaspiro[3.3]heptan-2-yl)methanone] | ≥ 1 |
| CC1COc2cc(F)c(F)cc2N1C(=O)N1CC2(C1)CN(c1ccc(F)cn1)C2 (single isomer, unassigned) [19-5-B] | ≥ 1 |
| CC1CN(C(=O)N2CC3(C2)CN(c2ccc(F)cn2)C3)c2ccc(Cl)cc2O1 (single isomer, unassigned) [9-3-A] | ≥ 1 |
| O=C(N1CC2(C1)CN(c1cnccn1)C2)N1CCC(O)c2cc(Cl)ccc21 (stereo not drawn) [13-3] | ≥ 1 |
| CC1Cc2cc(Cl)ccc2N1C(=O)N1CC2(C1)CN(c1ccc(F)cn1)C2 (stereo not drawn) [8-16] | ≥ 1 |
| O=C(N1CC2(C1)CN(c1cnccn1)C2)N1CCc2cc(Cl)ccc21 [8-14] | ≥ 1 |
| O=C(N1CC2(C1)CN(c1ccc(F)cn1)C2)N1CCC(F)c2cc(Cl)ccc21 (stereo not drawn) [14-1, (6-chloro-4-fluoro-3,4-dihydroquinolin-1(2H)-yl)(6-(5-fluoropyridin-2-yl)-2,6-diazaspiro[3.3]heptan-2-yl)methanone] | ≥ 1 |
| Cc1ccnc(N2CC3(CN(C(=O)N4c5ccc(F)cc5OCC4C)C3)C2)c1 (single isomer, unassigned) [20-4-B] | ≥ 1 |
| CC1COc2cc(Cl)c(F)cc2N1C(=O)N1CC2(C1)CN(c1ncccn1)C2 (stereo not drawn) [19-2] | ≥ 1 |
| O=C(N1CC2(C1)CN(c1ccccn1)C2)N1CCOCc2cc(Cl)ccc21 [8-12] | ≥ 1 |
| COc1ccnc(N2CC3(CN(C(=O)N4c5ccc(Cl)cc5OCC4C)C3)C2)c1 (stereo not drawn) [20-8] | ≥ 1 |
| Cc1ccnc(N2CC3(CN(C(=O)N4c5ccc(Cl)cc5OCC4C)C3)C2)n1 (stereo not drawn) [20-12] | ≥ 1 |
| CC1CN(C(=O)N2CC3(C2)CN(c2ccc(F)cn2)C3)c2ccc(Cl)cc2O1 (stereo not drawn) [9-3] | ≥ 1 |
| CC1COc2cc(Cl)ccc2N1C(=O)N1CC2(C1)CN(c1noc3cccnc13)C2 (stereo not drawn) [18-3] | ≥ 1 |
| CC1COc2cc(Cl)c(F)cc2N1C(=O)N1CC2(C1)CN(c1ncccn1)C2 (single isomer, unassigned) [19-2-B] | ≥ 1 |
